Laboratory results reported in the supplement of paper PMC10307832.

Legend:
Assay in all cases: relative viability (nuclei count vs DMSO), 5 days (fraction); higher = more cells survive
[1] = test system: HARA
How it was run: (§1)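 Dosing by pin tool came one day after lung cancer cell lines were seeded in 1536-well plates, using either one drug or a fixed anchor-drug dose plus five library-drug doses (not always all listed) in √10 steps. After 5 days, nuclei were counted on 4× images. Relative viability is treated-well nuclei count divided by vehicle-well nuclei count, and values are medians of duplicate plates.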

[2] = test system: BEN
How it was run: as §1

[3] = test system: NCI-H1666
How it was run: as §1

[4] = test system: NCI-H1915
How it was run: as §1

[5] = test system: NCI-H1563
How it was run: as §1

[6] = test system: NCI-H1395
How it was run: as §1

[7] = test system: NCI-H23
How it was run: as §1

[8] = test system: NCI-H2023
How it was run: as §1

[9] = test system: A-427
How it was run: as §1

[10] = test system: PC-3 [JPC-3]
How it was run: as §1

[11] = test system: LXF-289
How it was run: as §1

[12] = test system: SK-LU-1
How it was run: as §1

[13] = test system: NCI-H460
How it was run: as §1

[14] = test system: LU99A
How it was run: as §1

[15] = test system: NCI-H322M
How it was run: as §1

[16] = test system: NCI-H2170
How it was run: as §1

[17] = test system: NCI-H441
How it was run: as §1

[18] = test system: NCI-H1793
How it was run: as §1

[19] = test system: NCI-H2342
How it was run: as §1

[20] = test system: LOU-NH91
How it was run: as §1

[21] = test system: NCI-H2126
How it was run: as §1

[22] = test system: LCLC-97TM1
How it was run: as §1

COCC1(CO)C(=O)C2CCN1CC2 (stereo not given) [PRIMA-1MET] + COc1cccc2cc(-c3nc([C@H]4CC[C@H](C(=O)O)CC4)n4ncnc(N)c34)[nH]c12 [OSI-027] (partner 0.5 µM)
relative viability ([1]; first compound 0.2 µM): 0.463
relative viability ([1]; first compound 0.6325 µM): 0.48
relative viability ([1]; first compound 6.325 µM): 0.59
relative viability ([1]; first compound 20 µM): 0.417
relative viability ([2]; first compound 0.2 µM): 0.283
relative viability ([2]; first compound 0.6325 µM): 0.304
relative viability ([2]; first compound 6.325 µM): 0.287
relative viability ([2]; first compound 20 µM): 0.336
relative viability ([3]; first compound 0.2 µM): 0.791
relative viability ([3]; first compound 0.6325 µM): 0.87
relative viability ([3]; first compound 2 µM): 0.827
relative viability ([3]; first compound 6.325 µM): 0.826
relative viability ([3]; first compound 20 µM): 0.714
relative viability ([4]; first compound 0.2 µM): 0.475
relative viability ([4]; first compound 0.6325 µM): 0.582
relative viability ([4]; first compound 6.325 µM): 0.443
relative viability ([4]; first compound 20 µM): 0.578
relative viability ([5]; first compound 0.2 µM): 0.854
relative viability ([5]; first compound 0.6325 µM): 0.789
relative viability ([5]; first compound 2 µM): 0.735
relative viability ([5]; first compound 6.325 µM): 0.744
relative viability ([5]; first compound 20 µM): 0.327
relative viability ([6]; first compound 0.2 µM): 0.605
relative viability ([6]; first compound 0.6325 µM): 0.492
relative viability ([6]; first compound 2 µM): 0.647
relative viability ([6]; first compound 6.325 µM): 0.659
relative viability ([6]; first compound 20 µM): 0.6
relative viability ([7]; first compound 0.2 µM): 0.456
relative viability ([7]; first compound 0.6325 µM): 0.509
relative viability ([7]; first compound 2 µM): 0.511
relative viability ([7]; first compound 6.325 µM): 0.568
relative viability ([7]; first compound 20 µM): 0.476
relative viability ([8]; first compound 0.2 µM): 0.453
relative viability ([8]; first compound 0.6325 µM): 0.366
relative viability ([8]; first compound 2 µM): 0.363
relative viability ([8]; first compound 6.325 µM): 0.4
relative viability ([8]; first compound 20 µM): 0.241
relative viability ([9]; first compound 0.2 µM): 0.284
relative viability ([9]; first compound 0.6325 µM): 0.444
relative viability ([9]; first compound 2 µM): 0.389
relative viability ([9]; first compound 6.325 µM): 0.263
relative viability ([9]; first compound 20 µM): 0.369
relative viability ([10]; first compound 0.2 µM): 0.709
relative viability ([10]; first compound 0.6325 µM): 0.747
relative viability ([10]; first compound 2 µM): 0.816
relative viability ([10]; first compound 6.325 µM): 0.77
relative viability ([10]; first compound 20 µM): 0.792
relative viability ([11]; first compound 0.2 µM): 0.889
relative viability ([11]; first compound 0.6325 µM): 0.803
relative viability ([11]; first compound 2 µM): 0.527
relative viability ([11]; first compound 6.325 µM): 0.874
relative viability ([11]; first compound 20 µM): 0.759
relative viability ([12]; first compound 0.2 µM): 0.321
relative viability ([12]; first compound 0.6325 µM): 0.375
relative viability ([12]; first compound 2 µM): 0.256
relative viability ([12]; first compound 6.325 µM): 0.338
relative viability ([12]; first compound 20 µM): 0.0616
relative viability ([13]; first compound 0.2 µM): 0.653
relative viability ([13]; first compound 0.6325 µM): 0.624
relative viability ([13]; first compound 2 µM): 0.487
relative viability ([13]; first compound 6.325 µM): 0.323
relative viability ([13]; first compound 20 µM): 0.0164
relative viability ([14]; first compound 0.2 µM): 0.322
relative viability ([14]; first compound 0.6325 µM): 0.29
relative viability ([14]; first compound 2 µM): 0.292
relative viability ([14]; first compound 6.325 µM): 0.268
relative viability ([14]; first compound 20 µM): 0.0893
relative viability ([15]; first compound 0.2 µM): 0.494
relative viability ([15]; first compound 0.6325 µM): 0.289
relative viability ([15]; first compound 6.325 µM): 0.57
relative viability ([15]; first compound 20 µM): 0.13
relative viability ([16]; first compound 0.2 µM): 0.494
relative viability ([16]; first compound 0.6325 µM): 0.634
relative viability ([16]; first compound 2 µM): 0.722
relative viability ([16]; first compound 6.325 µM): 0.718
relative viability ([16]; first compound 20 µM): 0.713
relative viability ([17]; first compound 0.2 µM): 0.593
relative viability ([17]; first compound 0.6325 µM): 0.629
relative viability ([17]; first compound 2 µM): 0.663
relative viability ([17]; first compound 6.325 µM): 0.611
relative viability ([17]; first compound 20 µM): 0.313
relative viability ([18]; first compound 0.2 µM): 0.255
relative viability ([18]; first compound 0.6325 µM): 0.221
relative viability ([18]; first compound 6.325 µM): 0.298
relative viability ([18]; first compound 20 µM): 0.276
relative viability ([19]; first compound 0.2 µM): 0.598
relative viability ([19]; first compound 0.6325 µM): 0.59
relative viability ([19]; first compound 2 µM): 0.483
relative viability ([19]; first compound 6.325 µM): 0.595
relative viability ([19]; first compound 20 µM): 0.565
relative viability ([20]; first compound 0.2 µM): 0.806
relative viability ([20]; first compound 0.6325 µM): 0.719
relative viability ([20]; first compound 2 µM): 0.589
relative viability ([20]; first compound 6.325 µM): 0.662
relative viability ([20]; first compound 20 µM): 0.468
relative viability ([21]; first compound 0.2 µM): 0.799
relative viability ([21]; first compound 0.6325 µM): 0.603
relative viability ([21]; first compound 2 µM): 0.56
relative viability ([21]; first compound 6.325 µM): 0.728
relative viability ([21]; first compound 20 µM): 0.675
relative viability ([22]; first compound 0.2 µM): 0.306
relative viability ([22]; first compound 0.6325 µM): 0.554
relative viability ([22]; first compound 2 µM): 0.582
relative viability ([22]; first compound 6.325 µM): 0.364
relative viability ([22]; first compound 20 µM): 0.438
